Data: the supplement of paper PMC7017272
± gives the standard deviation of the averaged measurements.

Key:
Details in all cases: treatment time: 3 days
UT-SCC-24A = assay: drug sensitivity score (DSS); higher = more sensitive
Description: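 HNSCC cell lines (500 cells/well, 384-well) were cultured on plastic, on top of (2D) or embedded (3D) in Matrigel or human leiomyoma matrix Myogel (500 ug/mL; Myogel 3D mixed with rat collagen I). Cells were treated for 3 days with 5 ten-fold concentrations of each drug, and viability was read by CellTiter-Glo. Suffixes _1/_2/_3 on drug names are replicates.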

UT-SCC-40 [1] = assay: relative IC50 (midpoint of the fitted curve; maximal inhibition may be below 50%); higher = less potent
Outline: (§1)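 Viability of HPV-negative HNSCC cell lines was measured by CellTiter-Glo 2.0 luminescence. Cells were seeded at 500 cells/well in 384-well plates on plastic, on Matrigel- or Myogel-coated wells (500 µg/mL), or embedded in Matrigel or Myogel plus rat collagen I, then given compounds at five 10-fold concentrations for 3 days, with signals normalised to vehicle (0.1% DMSO) and cell-killing control wells. Fitting of percent-inhibition dose–response curves in the FIMM pipeline yielded IC50, maximal inhibition and drug sensitivity score.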

UT-SCC-81 [2] = assay: as above
Outline: as §1

UT-SCC-24B [3] = assay: as above
Outline: as §1

UT-SCC-28 [4] = assay: as above
Outline: as §1

UT-SCC-44 = assay: maximal % inhibition of viability relative to DMSO; higher = stronger effect
Description: (§2)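 HNSCC cell lines (500 cells/well, 384-well) were cultured on plastic, on top of (2D) or embedded (3D) in Matrigel or human leiomyoma matrix Myogel (500 ug/mL; Myogel 3D mixed with rat collagen I). Cells were treated for 3 days with 5 ten-fold concentrations of each drug, and viability was read by CellTiter-Glo. Viability was normalised to DMSO and benzethonium chloride controls and fitted with the FIMM DSRT pipeline to give IC50 (nM), maximal % inhibition and DSS. Suffixes _1/_2/_3 are replicates. Only inhibition-mode (IC50) fits are kept.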

UT-SCC-8 = assay: as above
Description: as §2

UT-SCC-42A = assay: as above
Description: as §2

UT-SCC-40 [5] = assay: as above
Description: as §2

UT-SCC-81 [6] = assay: as above
Description: as §2

UT-SCC-24B [7] = assay: as above
Description: as §2

UT-SCC-73 = assay: as above
Description: as §2

UT-SCC-106A = assay: as above
Description: as §2

UT-SCC-14 = assay: as above
Description: as §2

UT-SCC-28 [8] = assay: as above
Description: as §2

UT-SCC-42B = assay: as above
Description: as §2

[9] = culture condition: embedded in Matrigel
[10] = culture condition: embedded in Myogel + collagen I
[11] = culture condition: on top of Matrigel
[12] = culture condition: on top of Myogel
[13] = culture condition: plastic 2D (no matrix)

**Q.** For O=C(NC[C@H](O)CO)c1ccncc1Nc1ccc(I)cc1F [Pimasertib], which drug sensitivity score (UT-SCC-24A; [9]) is on record?
**A.** Its drug sensitivity score is 34.8 ± 1.2 DSS.

**Q.** What about the drug sensitivity score (UT-SCC-24A; [10]) of the same compound?
**A.** Its drug sensitivity score is 18.5 ± 1.2 DSS.

**Q.** And the drug sensitivity score (UT-SCC-24A; [11])?
**A.** The drug sensitivity score was 31.6 ± 0.84 DSS.

**Q.** What about the drug sensitivity score (UT-SCC-24A; [12]) of the same compound?
**A.** Its drug sensitivity score is 15 ± 1.6 DSS.

**Q.** And the drug sensitivity score (UT-SCC-24A; [13])?
**A.** Its drug sensitivity score is 28.3 ± 1.6 DSS.

**Q.** What about the “relative IC50” value (UT-SCC-40 [1]; [9]) of the same compound?
**A.** Its value is 0.0129 µM.

**Q.** And the “relative IC50” value (UT-SCC-40 [1]; [10])?
**A.** Its value is 0.0454 µM.

**Q.** And the “relative IC50” value (UT-SCC-40 [1]; [11])?
**A.** The value was 0.0301 µM.

**Q.** And the “relative IC50” value (UT-SCC-40 [1]; [12])?
**A.** Its value is 0.0894 µM.

**Q.** And the “relative IC50” value (UT-SCC-40 [1]; [13])?
**A.** Its value is 0.089 µM.

**Q.** And the “relative IC50” value (UT-SCC-81 [2]; [9])?
**A.** The value was 0.0145 µM.

**Q.** And the “relative IC50” value (UT-SCC-81 [2]; [11])?
**A.** Its value is 0.0435 µM.

**Q.** And the “relative IC50” value (UT-SCC-81 [2]; [12])?
**A.** The value was 0.532 µM.

**Q.** And the “relative IC50” value (UT-SCC-81 [2]; [13])?
**A.** Its value is 0.223 µM.

**Q.** What about the “relative IC50” value (UT-SCC-24B [3]; [9]) of the same compound?
**A.** The value was 0.15 µM.

**Q.** What about the “relative IC50” value (UT-SCC-24B [3]; [10]) of the same compound?
**A.** Its value is 0.212 µM.

**Q.** What about the “relative IC50” value (UT-SCC-24B [3]; [11]) of the same compound?
**A.** Its value is 0.184 µM.

**Q.** What about the “relative IC50” value (UT-SCC-24B [3]; [12]) of the same compound?
**A.** The value was 0.653 µM.

**Q.** And the “relative IC50” value (UT-SCC-24B [3]; [13])?
**A.** The value was 0.102 µM.

**Q.** And the “relative IC50” value (UT-SCC-28 [4]; [9])?
**A.** Its value is 0.0768 µM.

**Q.** And the “relative IC50” value (UT-SCC-28 [4]; [11])?
**A.** The value was 0.0988 µM.

**Q.** What about the “maximal % inhibition of viability” value (UT-SCC-44; [9]) of the same compound?
**A.** The value was 93.77 ± 0.93%.

**Q.** What about the “maximal % inhibition of viability” value (UT-SCC-44; [10]) of the same compound?
**A.** The value was 66.6 ± 8.2%.

**Q.** What about the “maximal % inhibition of viability” value (UT-SCC-44; [11]) of the same compound?
**A.** The value was 81.8 ± 2.8%.

**Q.** What about the “maximal % inhibition of viability” value (UT-SCC-44; [12]) of the same compound?
**A.** The value was 66.3 ± 3.5%.

**Q.** What about the “maximal % inhibition of viability” value (UT-SCC-44; [13]) of the same compound?
**A.** Its value is 69.6 ± 7.2%.

**Q.** What about the “maximal % inhibition of viability” value (UT-SCC-8; [9]) of the same compound?
**A.** Its value is 93.8 ± 1.2%.

**Q.** What about the “maximal % inhibition of viability” value (UT-SCC-8; [10]) of the same compound?
**A.** The value was 82.5 ± 1.6%.

**Q.** What about the “maximal % inhibition of viability” value (UT-SCC-8; [11]) of the same compound?
**A.** Its value is 90.4 ± 0.76%.

**Q.** What about the “maximal % inhibition of viability” value (UT-SCC-8; [12]) of the same compound?
**A.** Its value is 85.8 ± 2.3%.

**Q.** And the “maximal % inhibition of viability” value (UT-SCC-8; [13])?
**A.** The value was 90.3 ± 2.2%.

**Q.** What about the “maximal % inhibition of viability” value (UT-SCC-42A; [9]) of the same compound?
**A.** The value was 61.3 ± 7.5%.

**Q.** What about the “maximal % inhibition of viability” value (UT-SCC-42A; [10]) of the same compound?
**A.** The value was 51.3 ± 6.6%.

**Q.** What about the “maximal % inhibition of viability” value (UT-SCC-42A; [11]) of the same compound?
**A.** Its value is 63.2 ± 0.95%.

**Q.** What about the “maximal % inhibition of viability” value (UT-SCC-42A; [12]) of the same compound?
**A.** The value was 55.7 ± 5.7%.

**Q.** What about the “maximal % inhibition of viability” value (UT-SCC-42A; [13]) of the same compound?
**A.** The value was 60.4 ± 7.4%.

**Q.** What about the “maximal % inhibition of viability” value (UT-SCC-40 [5]; [9]) of the same compound?
**A.** The value was 80.6 ± 0.3%.

**Q.** And the “maximal % inhibition of viability” value (UT-SCC-40 [5]; [10])?
**A.** The value was 72.8 ± 3.5%.

**Q.** What about the “maximal % inhibition of viability” value (UT-SCC-40 [5]; [11]) of the same compound?
**A.** Its value is 77.77 ± 0.35%.

**Q.** And the “maximal % inhibition of viability” value (UT-SCC-40 [5]; [12])?
**A.** The value was 64.6 ± 2.5%.

**Q.** And the “maximal % inhibition of viability” value (UT-SCC-40 [5]; [13])?
**A.** The value was 64.5 ± 4.9%.

**Q.** And the “maximal % inhibition of viability” value (UT-SCC-81 [6]; [9])?
**A.** The value was 88.7 ± 1.7%.

**Q.** And the “maximal % inhibition of viability” value (UT-SCC-81 [6]; [10])?
**A.** Its value is 68.2 ± 0.36%.

**Q.** What about the “maximal % inhibition of viability” value (UT-SCC-81 [6]; [11]) of the same compound?
**A.** The value was 86.1 ± 0.46%.

**Q.** What about the “maximal % inhibition of viability” value (UT-SCC-81 [6]; [12]) of the same compound?
**A.** Its value is 71.2 ± 2.8%.

**Q.** And the “maximal % inhibition of viability” value (UT-SCC-81 [6]; [13])?
**A.** Its value is 78.6 ± 1.5%.

**Q.** And the “maximal % inhibition of viability” value (UT-SCC-24B [7]; [9])?
**A.** Its value is 72.7 ± 1.5%.

**Q.** What about the “maximal % inhibition of viability” value (UT-SCC-24B [7]; [10]) of the same compound?
**A.** The value was 79.1 ± 8.2%.

**Q.** What about the “maximal % inhibition of viability” value (UT-SCC-24B [7]; [11]) of the same compound?
**A.** The value was 75.8 ± 2.7%.

**Q.** What about the “maximal % inhibition of viability” value (UT-SCC-24B [7]; [12]) of the same compound?
**A.** The value was 67.9 ± 2.7%.

**Q.** And the “maximal % inhibition of viability” value (UT-SCC-24B [7]; [13])?
**A.** The value was 88.9 ± 1.2%.

**Q.** What about the “maximal % inhibition of viability” value (UT-SCC-73; [9]) of the same compound?
**A.** Its value is 86.2 ± 1.2%.

**Q.** What about the “maximal % inhibition of viability” value (UT-SCC-73; [10]) of the same compound?
**A.** The value was 78.7 ± 13%.

**Q.** And the “maximal % inhibition of viability” value (UT-SCC-73; [11])?
**A.** Its value is 81.93 ± 0.55%.

**Q.** What about the “maximal % inhibition of viability” value (UT-SCC-73; [12]) of the same compound?
**A.** Its value is 76.4 ± 1.3%.

**Q.** And the “maximal % inhibition of viability” value (UT-SCC-73; [13])?
**A.** The value was 79.6 ± 1.4%.

**Q.** What about the “maximal % inhibition of viability” value (UT-SCC-106A; [9]) of the same compound?
**A.** Its value is 53.5 ± 4.2%.

**Q.** What about the “maximal % inhibition of viability” value (UT-SCC-106A; [10]) of the same compound?
**A.** Its value is 43.4 ± 1.8%.

**Q.** And the “maximal % inhibition of viability” value (UT-SCC-106A; [11])?
**A.** Its value is 63.2 ± 0.68%.

**Q.** What about the “maximal % inhibition of viability” value (UT-SCC-106A; [12]) of the same compound?
**A.** Its value is 54.1 ± 3.3%.

**Q.** And the “maximal % inhibition of viability” value (UT-SCC-106A; [13])?
**A.** Its value is 70 ± 1.2%.

**Q.** And the “maximal % inhibition of viability” value (UT-SCC-14; [9])?
**A.** Its value is 64.8 ± 6.5%.

**Q.** What about the “maximal % inhibition of viability” value (UT-SCC-14; [10]) of the same compound?
**A.** The value was 59.6 ± 4.5%.

**Q.** And the “maximal % inhibition of viability” value (UT-SCC-14; [11])?
**A.** Its value is 59.6 ± 6.8%.

**Q.** And the “maximal % inhibition of viability” value (UT-SCC-14; [12])?
**A.** The value was 54.7 ± 9.3%.

**Q.** And the “maximal % inhibition of viability” value (UT-SCC-14; [13])?
**A.** Its value is 57.1 ± 10%.

**Q.** And the “maximal % inhibition of viability” value (UT-SCC-28 [8]; [9])?
**A.** The value was 54.1 ± 6.8%.

**Q.** What about the “maximal % inhibition of viability” value (UT-SCC-28 [8]; [10]) of the same compound?
**A.** Its value is 51 ± 6.3%.

**Q.** What about the “maximal % inhibition of viability” value (UT-SCC-28 [8]; [11]) of the same compound?
**A.** The value was 54.8 ± 1.5%.

**Q.** What about the “maximal % inhibition of viability” value (UT-SCC-28 [8]; [13]) of the same compound?
**A.** The value was 32.7 ± 3.9%.

**Q.** What about the “maximal % inhibition of viability” value (UT-SCC-42B; [9]) of the same compound?
**A.** The value was 70.2 ± 1.9%.

**Q.** And the “maximal % inhibition of viability” value (UT-SCC-42B; [11])?
**A.** Its value is 59.9 ± 2.8%.

**Q.** And the “maximal % inhibition of viability” value (UT-SCC-42B; [12])?
**A.** Its value is 53 ± 2.7%.

**Q.** What about the “maximal % inhibition of viability” value (UT-SCC-42B; [13]) of the same compound?
**A.** The value was 49.2 ± 3.8%.
